Reference: PubChem BioAssay (NCI)
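Values below derive from 48-hour exposures of cells grown in 96-well plates, with endpoints linearly interpolated between the two concentrations bracketing the appropriate inhibition level. TGI is the concentration that stops growth completely.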

Legend:
Assay in all cases: NCI-60 cell line screen, 48 h
786-0 renal = test system: 786-0 renal
A498 renal = test system: A498 renal
A549 NSCLC = test system: A549 NSCLC
ACHN renal = test system: ACHN renal
BT-549 breast = test system: BT-549 breast
CAKI-1 renal = test system: CAKI-1 renal
CCRF-CEM leukemia = test system: CCRF-CEM leukemia
COLO 205 colon = test system: COLO 205 colon
DU-145 prostate = test system: DU-145 prostate
EKVX NSCLC = test system: EKVX NSCLC
HCC-2998 colon = test system: HCC-2998 colon
HCT-116 colon = test system: HCT-116 colon
HCT-15 colon = test system: HCT-15 colon
HL-60(TB) leukemia = test system: HL-60(TB) leukemia
HOP-62 NSCLC = test system: HOP-62 NSCLC
HOP-92 NSCLC = test system: HOP-92 NSCLC
HT29 colon = test system: HT29 colon
K-562 leukemia = test system: K-562 leukemia
KM12 colon = test system: KM12 colon
LOX IMVI melanoma = test system: LOX IMVI melanoma
M14 melanoma = test system: M14 melanoma
MALME-3M melanoma = test system: MALME-3M melanoma
MCF7 breast = test system: MCF7 breast
MDA-MB-231 breast = test system: MDA-MB-231 breast
MDA-MB-435 = test system: MDA-MB-435
MDA-N = test system: MDA-N
MOLT-4 leukemia = test system: MOLT-4 leukemia
NCI-H226 lung = test system: NCI-H226 lung
NCI-H23 lung = test system: NCI-H23 lung
NCI-H460 lung = test system: NCI-H460 lung
NCI-H522 lung = test system: NCI-H522 lung
NCI/ADR-RES ovarian = test system: NCI/ADR-RES ovarian
OVCAR-3 ovarian = test system: OVCAR-3 ovarian
OVCAR-4 ovarian = test system: OVCAR-4 ovarian
OVCAR-5 ovarian = test system: OVCAR-5 ovarian
OVCAR-8 ovarian = test system: OVCAR-8 ovarian
PC-3 prostate = test system: PC-3 prostate
RPMI-8226 leukemia = test system: RPMI-8226 leukemia
RXF 393 renal = test system: RXF 393 renal
SF-295 CNS = test system: SF-295 CNS
SF-539 CNS = test system: SF-539 CNS
SK-MEL-2 melanoma = test system: SK-MEL-2 melanoma
SK-MEL-28 melanoma = test system: SK-MEL-28 melanoma
SK-MEL-5 melanoma = test system: SK-MEL-5 melanoma
SK-OV-3 ovarian = test system: SK-OV-3 ovarian
SN12C renal = test system: SN12C renal
SNB-19 CNS = test system: SNB-19 CNS
SNB-75 CNS = test system: SNB-75 CNS
SR leukemia = test system: SR leukemia
SW-620 colon = test system: SW-620 colon
U251 CNS = test system: U251 CNS
UACC-257 melanoma = test system: UACC-257 melanoma
UACC-62 melanoma = test system: UACC-62 melanoma
UO-31 renal = test system: UO-31 renal
IGROV1 ovarian = test system: IGROV1 ovarian
T-47D breast = test system: T-47D breast
TK-10 renal = test system: TK-10 renal
SF-268 CNS = test system: SF-268 CNS

Measured: TGI

CC(CO)CCC(O)C(C)(O)C1CCC2(O)C3=CC(=O)C4CC(O)C(O)CC4(C)C3CCC12C (stereo not given)
not listed: IGROV1 ovarian | T-47D breast | TK-10 renal | SF-268 CNS
> 100 µM: all other assays above

CC(=O)OCc1cc(=O)n2c([nH]c3ccccc32)c1C#N
60.9 µM: OVCAR-4 ovarian
64.8 µM: NCI-H460 lung
not listed: HOP-62 NSCLC | KM12 colon | MDA-MB-435 | NCI-H522 lung | RPMI-8226 leukemia | SNB-75 CNS | SR leukemia | SF-268 CNS
> 100 µM: all other assays above

c1ccc(P2c3ccccc3Nc3ccccc32)cc1
58.7 µM: MOLT-4 leukemia
87.1 µM: PC-3 prostate
82.5 µM: SK-MEL-5 melanoma
47.3 µM: OVCAR-3 ovarian
76.6 µM: A498 renal
55.8 µM: HL-60(TB) leukemia
71 µM: SNB-75 CNS
72 µM: CCRF-CEM leukemia
49.4 µM: SR leukemia
97.4 µM: HOP-92 NSCLC
not listed: BT-549 breast | RPMI-8226 leukemia
> 100 µM: all other assays above
